The values that follow come from patent US10016432B2 (Legacy Emanuel Hospital & Health Center, priority 2016, dated 2018).

Values joined by “and” are separate entries in the source; they are usually repeats but may differ in a detail not shown here. Equal entries are not always repeated. “Also recorded” adds a separate entry of the source.

The subject of data set [1] is 45 receptors, channels and transporters. Put plainly: PDSP screening at 45 receptors, channels and transporters (other off-target sites). Format: binding. Particulars: 10 μM. An excerpt:
(§1) It is possible that transient treatment with AdK inhibitors would have long-lasting therapeutic benefits for treatment of CNS disorders, not only by raising the basal level of AR activation but also through epigenetic reprogramming. […] SAH in turn inhibits DNA methyltransferases through product inhibition. Because the epigenetic effects related to changes in the DNA methylation status would persist, it might be possible to reduce the duration of drug administration, thus avoiding toxicities associated with prolonged, chronic dosing. A transient dosing regimen might also avoid possible side effects, such as liver toxicity. Compound 38a was submitted to the Psychoactive Drug Screening Program (PDSP) for screening at 45 receptors, channels and transporters. […] Nevertheless, the offtarget interactions of the present set of compounds would have to be examined more extensively.

In the next data set the target is T1, human P2Y1 (Homo sapiens, UniProt P47900).
T1 construct: expressed in transfected cells; host or cells: 1321N1 astrocytoma cells
T1 sequence (P47900 whole entry): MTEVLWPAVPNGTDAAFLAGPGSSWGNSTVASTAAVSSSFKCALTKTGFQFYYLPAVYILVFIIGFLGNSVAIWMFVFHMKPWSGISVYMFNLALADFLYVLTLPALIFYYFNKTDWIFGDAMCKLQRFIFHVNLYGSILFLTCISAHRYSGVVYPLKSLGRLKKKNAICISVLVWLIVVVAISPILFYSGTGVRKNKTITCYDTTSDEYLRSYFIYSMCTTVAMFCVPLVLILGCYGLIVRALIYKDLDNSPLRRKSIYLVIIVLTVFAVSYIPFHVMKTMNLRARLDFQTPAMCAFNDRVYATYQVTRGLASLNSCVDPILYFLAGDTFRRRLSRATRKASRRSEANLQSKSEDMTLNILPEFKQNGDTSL
Description: calcium transients, P2Y1 in 1321N1 astrocytoma cells. Format: cell-based. Particulars: 10 μM.
From the text: as §1

Another data set concerns ADK-S cells. Put plainly: DNA methylation in ADK-S cells.
Data set [2] is described as follows: polarity judged by tendency to dissolve in organic solvents. Particulars: based on tendency to dissolve in organic solvents. Format: physicochemical. From the text: The bioavailability and the in vivo activity of these inhibitors remain to be determined. Other nucleoside derivatives were protective in seizure models when administered peripherally. […] Among the new (S)-methanocarba AdK inhibitors, 5′-deoxy analogue 38a and especially the fluoro analogues 38b and 38c appear to be the least polar, based on their tendency to dissolve in organic solvents.

In the next data set the target is T2, human P2Y11 (Homo sapiens, UniProt Q96G91).
T2 construct: expressed in transfected cells; host or cells: 1321N1 astrocytoma cells
T2 sequence (Q96G91 1-374): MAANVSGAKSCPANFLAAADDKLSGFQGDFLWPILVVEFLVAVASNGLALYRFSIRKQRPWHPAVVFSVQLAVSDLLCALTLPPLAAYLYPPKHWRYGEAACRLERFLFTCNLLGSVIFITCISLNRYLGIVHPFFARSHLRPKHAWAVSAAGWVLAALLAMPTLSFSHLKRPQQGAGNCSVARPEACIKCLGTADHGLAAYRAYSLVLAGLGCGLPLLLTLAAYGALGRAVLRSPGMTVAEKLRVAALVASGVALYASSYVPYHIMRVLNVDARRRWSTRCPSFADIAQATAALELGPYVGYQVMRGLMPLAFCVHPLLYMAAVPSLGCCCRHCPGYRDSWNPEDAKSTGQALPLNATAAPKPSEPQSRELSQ
Put plainly: calcium transients, P2Y11 in 1321N1 astrocytoma cells. Format: cell-based. Particulars: 10 μM.
From the text: as §1

In another data set the test system is ADK-L cells. Description: DNA methylation (5 mC ELISA) in ADK-L cells. On the set-up: reduction of DNA methylation in ADK-L cells: dose or concentration left out as unconfirmed. Particulars: 24 hours. Background: ELISA stands for enzyme-linked immunosorbent assay.
For data set [3], the target named is T3, protease-activated receptor (PAR)1 (Homo sapiens, UniProt P25116).
T3 construct: expressed in transfected cells; host or cells: mouse KOLF cells
T3 sequence (P25116 22-425): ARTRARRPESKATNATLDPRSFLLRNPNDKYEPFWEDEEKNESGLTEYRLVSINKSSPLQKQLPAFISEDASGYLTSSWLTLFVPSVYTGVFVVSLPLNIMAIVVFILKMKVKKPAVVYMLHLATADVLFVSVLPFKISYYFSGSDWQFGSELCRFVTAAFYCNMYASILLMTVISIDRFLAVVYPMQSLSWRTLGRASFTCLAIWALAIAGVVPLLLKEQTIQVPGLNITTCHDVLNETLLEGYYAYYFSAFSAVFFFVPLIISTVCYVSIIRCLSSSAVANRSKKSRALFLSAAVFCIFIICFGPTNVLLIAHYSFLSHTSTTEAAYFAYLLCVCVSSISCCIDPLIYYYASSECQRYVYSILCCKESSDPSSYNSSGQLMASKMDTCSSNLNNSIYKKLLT
Put plainly: PAR1 agonist/antagonist test in mouse KOLF cells. Format: cell-based. Particulars: 10 μM.
From the text: as §1

Data set [4] has as its system Hippocampal DNA methylation. Description: hippocampal / brain DNA methylation in treated mice. It is filed as in vivo, Swiss Webster mice. Particulars: 3.1 mg/kg i.p., 3 doses every 12 hours, 1 hour after 3rd dose, vs controls. How it is done: (§2) Epigenetic activity in the brain. […] Tissue was harvested 1 hour after the 3rd dose.
Data set [5] is described as follows: side effects: mouse activity in an open field. Particulars: epigenetically active dose, i.p. Format: in vivo, mice. The method, then: Side effects were indexed by mouse activity in an open field for 20 minutes following a single i.p. injection of vehicle, 5-ITU or compound 38a. […] Data are presented as the mean±SEM and analyzed by one-way ANOVA then uncorrected Fisher's LSD test with all comparisons relative to vehicle or Kruskal-Wallis then Dunn's multiple comparisons.

Data set [6] deals with T4, hAdK (Homo sapiens, UniProt P55263).
T4 construct: purchased
T4 sequence (P55263 whole entry): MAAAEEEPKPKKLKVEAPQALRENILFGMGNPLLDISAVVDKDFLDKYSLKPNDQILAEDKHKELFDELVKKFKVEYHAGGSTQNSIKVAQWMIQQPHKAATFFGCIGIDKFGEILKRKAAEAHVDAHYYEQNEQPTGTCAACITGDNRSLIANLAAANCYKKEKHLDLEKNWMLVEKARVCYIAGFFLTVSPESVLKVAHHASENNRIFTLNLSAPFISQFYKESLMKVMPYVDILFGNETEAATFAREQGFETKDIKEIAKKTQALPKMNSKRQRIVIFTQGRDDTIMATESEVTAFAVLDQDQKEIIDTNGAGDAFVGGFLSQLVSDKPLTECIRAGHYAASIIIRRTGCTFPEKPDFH
Description: commercial nonisotopic spectrophotometric hAdK kinetic activity assay (340 nm, inosine as substrate). Format: biochemical. How it is done:
The nucleoside derivatives were tested for inhibitory activity at hAdK using a commercial, nonisotopic assay for the measurement of hAdK kinetic activity based on continuous monitoring of enzymatic activity at 340 nm (appearance of reduced nicotinamide-adenine dinucleotide from a coupled enzymatic reaction). The hAdK-catalyzed phosphorylation of inosine to inosine 5′-monophosphate is coupled to the inosine 5′-monophosphate dehydrogenase-dependent oxidation of the product. […] Percent inhibition of hAdK activity was calculated by determining the slope of the hAdK reaction during the linear phase of the enzymatic reaction (first 40 min) (see Table 1, below). […] Each inhibitor was analyzed at the following concentrations (μM): of 50, 20, 1, 0.50, 0.10, 0.020 and 0.010.

A further data set deals with T5, human P2Y2 (Homo sapiens, UniProt P41231).
T5 construct: expressed in transfected cells; host or cells: 1321N1 astrocytoma cells
T5 sequence (P41231 whole entry): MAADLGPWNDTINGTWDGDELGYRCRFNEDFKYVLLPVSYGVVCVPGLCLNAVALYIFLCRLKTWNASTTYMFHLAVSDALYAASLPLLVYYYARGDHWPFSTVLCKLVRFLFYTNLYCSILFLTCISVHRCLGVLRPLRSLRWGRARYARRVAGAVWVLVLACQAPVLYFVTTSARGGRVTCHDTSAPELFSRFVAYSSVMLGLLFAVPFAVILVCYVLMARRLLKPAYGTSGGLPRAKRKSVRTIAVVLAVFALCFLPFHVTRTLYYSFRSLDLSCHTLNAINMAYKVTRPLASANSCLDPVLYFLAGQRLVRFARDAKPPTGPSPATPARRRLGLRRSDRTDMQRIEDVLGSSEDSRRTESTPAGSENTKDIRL
Description: calcium transients, P2Y2 in 1321N1 astrocytoma cells. Particulars: 10 μM. Format: cell-based.
From the text: as §1

The target in the next data set is T6, human P2Y4 (Homo sapiens, UniProt P51582).
T6 construct: expressed in transfected cells; host or cells: 1321N1 astrocytoma cells
T6 sequence (P51582 whole entry): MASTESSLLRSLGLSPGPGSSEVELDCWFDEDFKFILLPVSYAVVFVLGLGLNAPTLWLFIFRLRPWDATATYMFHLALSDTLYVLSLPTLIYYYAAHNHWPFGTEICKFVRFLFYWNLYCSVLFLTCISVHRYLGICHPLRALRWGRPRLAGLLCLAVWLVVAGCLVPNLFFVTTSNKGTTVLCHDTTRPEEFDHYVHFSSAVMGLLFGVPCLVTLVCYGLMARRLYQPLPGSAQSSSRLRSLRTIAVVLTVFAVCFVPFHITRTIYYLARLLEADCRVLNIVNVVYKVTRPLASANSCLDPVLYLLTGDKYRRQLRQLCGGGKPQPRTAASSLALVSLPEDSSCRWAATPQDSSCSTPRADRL
Description: calcium transients, P2Y4 in 1321N1 astrocytoma cells. It is filed as cell-based. Particulars: 10 μM.
From the text: as §1

For data set [7], the target named is human 5HT7 (serotonin) receptor (Homo sapiens, UniProt P34969). Put plainly: PDSP radioligand binding, 5HT7. Particulars: read-out: Ki, inhibition of radioligand binding.
human 5HT7 (serotonin) receptor, sequence (P34969 whole entry): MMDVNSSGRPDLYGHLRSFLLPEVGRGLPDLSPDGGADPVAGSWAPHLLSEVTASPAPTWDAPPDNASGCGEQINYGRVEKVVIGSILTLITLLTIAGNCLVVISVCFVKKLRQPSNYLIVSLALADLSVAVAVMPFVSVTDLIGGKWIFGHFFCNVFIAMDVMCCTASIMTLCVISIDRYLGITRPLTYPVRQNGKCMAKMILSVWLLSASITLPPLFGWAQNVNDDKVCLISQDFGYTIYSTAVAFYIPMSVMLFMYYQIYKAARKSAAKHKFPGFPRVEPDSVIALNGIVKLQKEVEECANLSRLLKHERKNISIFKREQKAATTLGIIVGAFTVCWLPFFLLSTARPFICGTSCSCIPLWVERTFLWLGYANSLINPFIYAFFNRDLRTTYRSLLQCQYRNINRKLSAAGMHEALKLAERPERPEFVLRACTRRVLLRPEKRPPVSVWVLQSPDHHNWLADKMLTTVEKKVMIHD
From the text: as §1

The test system of another data set is ADK-null cells. Put plainly: DNA methylation in ADK-null cells (off-target). Format: cell-based. Particulars: vs vehicle. An excerpt: To test for nonspecific activities of ADK inhibitors on DNA methylation, we tested our set of inhibitors on ADK-null cells, which are hypomethylated and can be used to identify treatments that increase DNA methylation (whereas ADK-L cells display a hypermethylated ceiling effect).

The subject of the next data set is DNMT activity. Put plainly: DNMT activity in brain nuclear protein extracts of treated mice. Format: in vivo, Swiss Webster mice. Particulars: 3.1 mg/kg i.p., 3 doses every 12 hours, 1 hour after 3rd dose, vs vehicle. The method, then:
as §2

Data set [8] deals with T4, hAdK. Particulars: read-out: Km as substrate of hAdK; cited from earlier work.

Description for ADK-L cells: The in vitro IC50 for each conventional ADK inhibitor was selected as the treatment dose. […] Purified genomic DNA (100 ng) was run on a 5-methylcytosine (5 mC) ELISA. Data shown in FIG. 11 are represented as the mean±SEM (n=8-9) and analyzed by one-way ANOVA followed by Tukey's multiple comparisons test (C) or Krus-kal-Wallis test followed by uncorrected Dunn's test with all comparisons relative to ADK-L vehicle (D).

A word on the IC50: it is the midpoint of a concentration-inhibition curve. By Ki is commonly meant the dissociation constant of the complex between target and ligand, obtained from inhibition or displacement. In the case of `C[C@@H]1[C@@H](O)[C@@H](O)[C@@]2(n3cc(-c4ccccc4)c4c(Nc5ccccc5)ncnc43)C[C@@H]12` [Compound 38a], the “inhibition of binding at the other off-target sites” value in data set [1] was less than 50%. The “agonist or antagonist activity at P2Y1” value on human P2Y1 is “inactive”. Also, the “effect on DNA methylation in ADK-S cells” value in the data set with ADK-S cells is reported as “without any off-target effects”. For the same compound, in [2], the polarity entry is “least polar”. At human P2Y11, the “agonist or antagonist activity at P2Y11” value is “inactive”. For the same compound, in the data set on ADK-L cells (55 and 38a at 26 nM, known inhibitors at their IC50), the “effect on DNA methylation in ADK-L cells, in words” value was “reduces DNA methylation specifically in ADK-L cells”. The “reduction of DNA methylation in ADK-L cells” value in the data set with ADK-L cells ([…] nM (equimolar), vs ADK-L vehicle) was more than 50%. Besides, the “agonist or antagonist activity at PAR1” value in [3] is “inactive”. Further, the entries for the “hippocampal (brain) DNA methylation levels” value in data set [4] and in data set [4] (listed as 38A) were “reduced” and “reduced; also recorded: reduces DNA methylation in the hippocampus”, respectively. Also, the “sedation / sedative side effects” value in data set [5] is reported as “not associated with any overt signs of sedation”. Besides, at hAdK [6], the “hAdK inhibition, in words” value is “commensurate with 2 at most concentrations”. Besides, the “concentration at which inhibition begins to vary significantly from 2” value at hAdK [6] (Bonferroni post hoc vs 2) was “never significantly varied from 2”. The “potency relative to reference compound 2” value on hAdK [6] (hAdK inhibition) was “approximately two-fold less potent”. In addition, the IC50 on hAdK [6] (hAdK, inosine as substrate, read-out: IC50 for hAdK) is < 100 nM and 88 nM. Further, the “agonist or antagonist activity at P2Y2” value at human P2Y2 was “inactive”. Moreover, the “agonist or antagonist activity at P2Y4” value at human P2Y4 was “inactive”. In data set [7], the Ki turned out to be 710 nM. For the same compound, the “effect on DNA methylation in ADK-null cells (non-specific)” value in the data set on ADK-null cells is “greater specificity”; in the data set with ADK-null cells (listed as 38A) it was “no effect on DNA methylation; also recorded: without any off-target effects”. Further, the “DNMT activity in brain nuclear protein extracts” value was “significantly reduced” in the data set with DNMT activity and “reduced” in the data set on DNMT activity (listed as 38A).

Usually Km stands for the substrate concentration at which the rate is half of its maximum. Take `Nc1ncnc2c1ncn2[C@@H]1O[C@H](CO)[C@@H](O)[C@H]1O` [adenosine]: the Km at hAdK [8] is 0.7 µM.
